Results published in PMC9530963, “A cathelicidin antimicrobial peptide from Hydrophis cyanocinctus inhibits Zika virus infection by downregulating expression of a viral entry factor” (The Journal of Biological Chemistry, 2022).

Legend:
[1] = system: TYRO3; assay: TYRO3 level in Vero cells (Western blot); assay type: cell-based, Chlorocebus aethiops; conditions: 6, 12, and 24 h post Hc-CATH addition
Experimental: Figure 3 Hc-CATH downregulates AXL in Vero cell.A, schematic diagram of B and C. B, Vero cells were seeded in 24-well plates (5 × 10^4 cells/well) and cultured in DMEM containing 2% FBS. Hc-CATH (1.25, 2.5, and 5 μM), AC5 (2.5 μM), LL-37 (2.5 μM), or same volume of PBS (peptide solvent) was added to cells. After culture at 37 °C for 6, 12, and 24 h, the levels of ZIKV entry factors, including AXL, TYRO3, and TIM-1, were tested by Western blot, respectively. C, Vero cells were seeded in 8-well cover slip chambers (5 × 10^4 cells/well) and cultured in DMEM containing 2% FBS. Hc-CATH (1.25, 2.5, and 5 μM), AC5 (2.5 μM), LL-37 (2.5 μM), or same volume of PBS (peptide solvent) was added to cells. After culture at 37 °C for 24 h, the level of AXL was tested by immunofluorescence staining. The scale bar represents 50 μm. D, schematic diagram of E. E, Vero cells were seeded in 24-well plates (5 × 10^4 cells/well) and cultured in DMEM containing 2% FBS. Hc-CATH (1.25, 2.5, and 5 μM), AC5 (2.5 μM), LL-37 (2.5 μM), or same volume of PBS (peptide solvent) was added to cells and incubated at 37 °C for 2 h. […] Ratio of AXL to β-actin was analyzed by ImageJ.
Vero cells were incubated with Hc-CATH (1.25, 2.5, and 5 μM), AC5 (2.5 μM), LL-37 (2.5 μM), or PBS (solvent of peptide). […] The levels of ZIKV entry factors, including AXL, TYRO3, and TIM-1, were detected by WB analysis. […]

[2] = system: COX-2; assay: Enzymatic activity of COX-2 (inhibitor screening kit); assay type: biochemical; conditions: 10 μM, incubated with COX-2 at 37 °C for 10 min
Experimental: Figure 6 Hc-CATH downregulates AXL via inhibiting COX-2/PGE2/AC/PKA pathway.A, effect of Hc-CATH on COX-2 protein level. A549 cells were incubated with Hc-CATH (1.25, 2.5, or 5 μM) or PBS (solvent of Hc-CATH) at 37 °C for 24 h, COX-2 protein level was examined by Western blot (upper panel) and analyzed by ImageJ (lower panel). B, effect of Hc-CATH on the enzymatic activity of COX-2. Hc-CATH (1.25, 2.5, 5, and 10 μM) or PBS was incubated with COX-2. After incubation at 37 °C for 10 min, the enzymatic activity of COX-2 was detected by enzyme activity inhibitor screening kit. Celecoxib (COX-2 inhibitor, 100 nM) was used as positive control. C, effect of Hc-CATH on PGE2 production. A549 cells were incubated with Hc-CATH (5 μM) at 37 °C. After incubation for 24 h, the level of PGE2 in the cell supernatant was detected by ELISA. D and E, effect of AC (D) and PKA (E) on Hc-CATH-induced AXL downregulation. […] After incubation for 24 h, AXL protein level was examined by Western blot (upper panel of D and E) and analyzed by ImageJ (lower panel of D and E). ns, not significant, ∗∗p < 0.01, and ∗∗∗p < 0.001.
The effect of Hc-CATH on the enzymatic activity of COX-2 was detected by enzyme activity inhibitor screening kit. […] After incubation at 37 °C for 10 min, the enzymatic activity of COX-2 was detected by the kit. […]

[3] = system: ZIKV; assay: ZIKV replication stage, Vero cells (peptide added after infection); assay type: cell-based, ZIKV strain PRVABC59; conditions: 2.5 μM added after 2 h ZIKV infection (MOI = 1), 48 h, relative to PBS
Experimental: B–I, Vero (B–G), A549 (H), or U251 (I) cells were incubated with ZIKV (MOI = 1) at 37 °C for 2 h, washed with PBS, and transferred with fresh DMEM containing 2% FBS and Hc-CATH (2.5 μM), AC5 (2.5 μM), LL-37 (2.5 μM), or PBS (solvent of peptide). After culture at 37 °C for 48 h, intracellular ZIKV RNA (B), NS3 protein (C, D, H, and I), E protein level (E, the scale bar represents 50 μm), and extracellular ZIKV titer (F and G) were detected by qPCR, Western blot, immunofluorescence staining, and plaque-forming assay, respectively.
Vero cells were incubated with ZIKV (MOI = 1) at 37 °C for 2 h, washed three times with PBS, and transferred with fresh DMEM containing 2% FBS and Hc-CATH (2.5 μM), AC5 (2.5 μM), LL-37 (2.5 μM), or PBS. After culture at 37 °C for 48 h, intracellular ZIKV RNA, NS3 protein, E protein, and extracellular ZIKV titer were detected by qPCR, WB, IF, and plaque-forming assay, respectively. The effect of Hc-CATH on ZIKV replication stage was further tested in A549 and U251 cells under the same condition, and intracellular ZIKV NS3 protein was detected by WB.

[4] = system: Vero, A549 or U251 cells; conditions: 1.25, 2.5, and 5 μM, 48 h, 37 °C, CCK-8
Experimental: Vero, A549 or U251 cells (1×10^4 cells/well) were seeded
in 96-well plates . Series of two -fold peptide dilutions in DMEM were added to each well to
give final concentrations from 0.78125 to 50 μM. After incubation at 37℃ for 48 h, cell
counting assay kit (CCK -8) was applied to determine the cytotoxicity. ***P < 0.001, ns, not

[5] = system: bacteria; set-up: method as in PMID 26013823; conditions: cited from earlier work

KFFKRLLKSVRRAVKKFRKKPRLIGLSTLL [Hc-CATH, cathelicidin antimicrobial peptide identified from the sea snake Hydrophis cyanocinctus]
level of TYRO3 in Vero cells [1]: did not obviously influence
inhibitory rate against COX-2 activity [2]: about 80%
intracellular ZIKV RNA, NS3 protein, E protein, extracellular ZIKV titer, peptide maintained after infection [3]: did not reduce
cytotoxicity against mammalian cells [4]: did not have cytotoxicity
antibacterial spectrum [5]: broad antibacterial spectrum
